According to US7217570B2, “Organotypic intestinal culture and methods of use thereof” (The Wistar Institute of Anatomy and Biology, priority 2001, dated 2007):
“Also recorded” adds a separate entry of the source. Where no end group is shown, it is not given here.

How the values were obtained:
enteric epithelial cells = assay: Growth factor modulation of organotypic culture in reduced or modified media (Example 2); format: cell-based, human; details: growth factor added individually to base medium (MCDB 201/L15, transferrin, antibiotics)
Method: To determine the role of growth factors on proliferation of colonic epithelial cells, this growth medium was modified by changing combinations of growth factors and deleting serum. Keratinocyte growth factor (KGF, R&D Systems) at 20 ng/ml was also tested as part of 23 growth factor combinations. Total relative cell numbers of a specific type were counted as an average of all nuclei counts from a minimum of 3 randomly selected cross-sections of a reconstruct. Goblet cells were counted based on their typical morphology and positive Alcian staining in at least 3 randomly selected slides. Proliferation rates in % were established by counting the number of BrdU or Ki-67-positive nuclei per total epithelial cell nuclei of section. Apoptotic cells were counted in H&E-stained sections (Vagunda, V. et al. 2000 Anal. Quant. Cytol. Histol., 22:307–310). Apoptotic bodies and nuclei were determined according to the size and numbers of the fragments. Apoptosis was calculated as percentage of total nuclei per section (Kerr, J F. et al. 1972 Br. J. Cancer, 26:239–257) To define the role of critical growth factors supporting growth and differentiation of the enteric epithelial cells, an organotypic culture, such as that described in Example 1, was grown in medium in which the number of supplements was reduced. In other experiments, the growth factors, including insulin, EGF, SCF, ET-3, KGF, bFGF, or AMF were added individually to the base medium (MCDB 201/L15 medium with transferrin and antibiotics). In each case, epithelial cell proliferation was not supported in the organotypic culture. In another experiment, the organotypic cultures were prepared by seeding epithelial cells on the artificial stroma in complete medium C or medium L/S/E or medium L. Medium C contained transferrin, insulin, bFGF, EGF, ET-3, HGF, LIF, SCF, AMF, and 1% FCS as supplements. L/S/E medium contained transferrin, insulin, LIF, SCF, ET-3, EGF, and 1% FCS. L medium contained transferrin, insulin, LIF, EGF, and 1% FCS. Sections of the cultures were stained with H&E and Alcian blue after 12 hours (day 0) and 4 days. Values were generated SD of 5 fields from 2 independent experiments. […] The L/S/E-supplemented base medium (LIF, SCF, ET-3, EGF, insulin, and 1% FCS) induced formation by day 4 of highly disorganized structures of stratified and pseudostratified epithelial cells. The epithelium was hyperplastic with morphological atypia. In contrast to results obtained with complete growth medium, only the upper surface rather than the entire artificial stroma was covered with epithelium.

fibroblasts = assay: Constriction of collagen matrix by embedded fibroblasts and fibroblast numbers; format: cell-based, human
Method: Human smooth muscle cells HIAS119, kindly provided by Dr. E. Levine, The Wistar Institute, were isolated from large blood vessels and maintained in medium M199, supplemented with 10% FCS, 2 mM L-glutamine, and 50 μg/ml bovine hypothalamus extract (Oda, D. et al, 1998 In Vitro Cell. Dev. Biol. Anim., 34, 46–52). Fibroblasts at 8×10^5/ml were embedded in collagen type I (Organogenesis, Canton, Mass.) to a final concentration of 0.9 to 1.1 mg/ml in DMEM supplemented with 50 μM vitamin C (Sigma), 1.66 mM L-glutamine (GIBCO-BRL), and 1% FCS. The suspension was neutralized, pH 7.2, using 7.5% sodium bicarbonate. Chambered slides, Lab-Tek 8 wells (Nunc International, Rochester, N.Y.), were filled with 0.2 ml of the collagen and cell suspension. […]
(§1) Cell numbers were determined per high-power field (0.11×0.18 mm) using 40× magnification as the mean (±SD) of 364 measurements. Constriction of collagen matrices was measured as the length of the longitudinal axis of collagen harvested on days 0.5, 4 and 10 (mean±SD of 32 measurements of 4 samples. Positive cells per area were counted in 12 consecutive fields per cross-section (mean±SD of 16 areas of 2 random cross-sections from 4 samples. Relative number of positive cells per area was expressed as mean±SD of positive/total cells from 16 areas of 2 random cross-sections for each sample. Statistical significance was tested using Student's t-test.

colonic epithelial cells [1] = assay: Proliferation of organotypic colon cultures in LIF-supplemented base medium (BrdU, 3H-thymidine, cell numbers per area); format: cell-based, human
Method: Colonic epithelial cells described above were seeded on top of collagen gels containing embedded fibroblasts described above in 0.4 ml of complete growth medium. After seeding onto the matrix of collagen type I with embedded fibroblasts, samples were incubated at 37° C. in 5% CO2 for 60–90 minutes in a low volume of medium (50–100 μl) to enhance attachment. The epithelial cells and clusters attached within 60 minutes. The wells were then filled with complete growth medium. Medium was changed daily for 10 days, then three times per week for an additional 21 days.
Proliferation of organotypic cultures was determined by adding bromodeoxyuridine (BrdU) to the medium according to the manufacturer's instructions (Amersham Pharmacia Biotech, Inc., Piscataway, N.J.). Thymidine incorporation was measured in cells, incubated with 1 μCi ^3H-thymidine/well for 18 hours before harvest and determination of radioactivity.
as §1

colonic epithelial cells [2] = assay: Differentiated cells (goblet, enteroendocrine, carbonic anhydrase II) in organotypic colon cultures with LIF; format: cell-based, human
From the text: The organotypic cultures were characterized as follows. Harvested organotypic cultures were fixed in 1.5% paraformaldehyde and embedded in paraffin. For electron microscopy (EM), cultures were fixed in 4% glutaraldehyde. For histochemistry and immunohistochemistry, 5-μm thick sections were cut from the paraffin beds and stained with hematoxylin and eosin (H&E) or Alcian Blue using standard procedures.
Goblet cells were detected using Alcian Blue and EM. Enteroendocrine cells were identified by chromogranin A staining and EM. Immunohistochemical staining was done with monoclonal antibodies specific for: BrdU (Amersham), Ki67 (DAKO, Carpinteria, Calif.), α-smooth muscle actin (SMA) (Sigma), cytokeratin 19 (CK 19; antibody BA17 [33] kindly provided by Dr. J. Kovarik, Brno, Czech Rep.), chromogranin A (Novocastra, New Castle Upon Tyne, UK) and carbonic anhydrase II (The Binding Site Limited, Birmingham, UK). Immunohistochemistry was performed by standard techniques as described (Dai, C. Y. et al, 2000 Gastroenterology, 119, 929–942). Alkaline phosphatase activity of paraffin-embedded samples was detected using colorimetric substrate (AP Substrate Kit, SK 15100, Vector, Burlingame, Calif.).
as §1

colonic epithelial cells [3] = assay: Coating of artificial stroma or plastic with extracellular matrix proteins (Example 3); format: cell-based, human
From the text: Another embodiment of an organotypic culture prepared as described substantially as in Example 2, has an additional component. An extracellular matrix was applied to the organotypic cultures by coating the artificial stroma with matrix proteins Laminin-2 […] (Life Technologies, Rockville, Md.), Laminin-1 […] (Sigma), or Matrigel® gel matrix (Collaborative Research, Bedford, Mass.), which contains Laminin-1 and other matrix proteins, such as collagen IV and […] (Burgeson, R E., et al. 1994 Matrix Biol., 14:209–211 and Page, KC. et al. 1990 J. Biol. Reprod., 43:659–664). Fifty to 100 μl of base medium containing 20 ng/ml of laminins were added onto the surface of the artificial stroma for 60 minutes at 37° C. Matrigel® matrix was diluted 1:5 to 1:10 in base medium before use. After incubation, unbound laminins or Matrigel® matrix were removed by two washings with base medium. The organotypic cultures were incubated at 37° C. in 5% CO2 in growth medium, which was changed daily for 7 days, then three times per week for an additional 21 days. Growth and differentiation of colonic epithelium in growth medium was regulated by ECM components at the interface between the stroma and the epithelial layer. These ECM experiments were done in base medium, supplemented with LIF, SCF, ET3, EGF, insulin, and 1% FCS. […]

[4] = test system: colorectal carcinoma cell line HT29; assay: Growth of carcinoma cell line on laminin substrates; format: cell-based; details: Laminin-2 compared to Laminin-1
From the text: Quantitative analysis of the growth fractions confirmed that the different laminins control growth and differentiation. […] Enteric epithelial cells spread similarly on substrates of Laminins-2 and —I bound to plastic of culture dishes.

stem cell factor [SCF]
epithelial cell proliferation (enteric epithelial cells): not supported

autocrine motility factor [AMF]
epithelial cell proliferation (enteric epithelial cells): not supported

insulin
epithelial cell proliferation (enteric epithelial cells): not supported

leukemia inhibitory factor [LIF]
collagen constriction by fibroblasts (fibroblasts; LIF in base medium): did not change | fibroblast numbers (fibroblasts; LIF-stimulated cultures versus control): no differences | 3H-thymidine incorporation (colonic epithelial cells [1]; BM+LIF compared with BM only, after 2 days): Significant stimulation | Growth of epithelial cells (colonic epithelial cells [1]; LIF added to base medium, organotypic culture): significantly stimulated | number of colonic epithelial cells (colonic epithelial cells [1]; LIF-containing base medium versus base medium): significantly higher | numbers of BrdU-positive and total epithelial cells (colonic epithelial cells [1]; LIF-stimulated cultures): significantly higher | expression of differentiation marker carbonic anhydrase II (colonic epithelial cells [2]; LIF only added to base medium): did not express | percentage of goblet cells among total cells and per area (colonic epithelial cells [2]; LIF, FIG. 3A): lack of stimulation | relative numbers of goblet cells (of all enterocytes) (colonic epithelial cells [2]; LIF-cultured, p=0.81 versus control base medium): 3.8±3.5% | numbers of goblet cells per area (colonic epithelial cells [2]; LIF-stimulated samples, p=0.13 versus samples without LIF): 2.25±1.66 | relative numbers of enteroendocrine cells (colonic epithelial cells [2]; in the presence of LIF): significantly decreased; also recorded: decrease

Laminin-2: matrix protein Laminin-2 α2β1γ1 (Life Technologies)
control of growth and differentiation of colonic epithelium (colonic epithelial cells [3]; coating of artificial stroma, quantitative analysis of growth fractions): stimulated cell growth | survival of epithelial cells by day 5 (colonic epithelial cells [3]; laminin bound to plastic of culture dishes): survived only with Laminin-2 | growth of HT29 cells [4]: better growth

basic fibroblast growth factor [bFGF]
epithelial cell proliferation (enteric epithelial cells): not supported

endothelin-3 (CTCFTYKDKECVYYCHLDIIW; ends and bridges not checked; cysteine pairing not given here; UniProt P14138 97-117, looked up) [ET-3, endothelin-3 (Peninsula Labs)]
epithelial cell proliferation (enteric epithelial cells): not supported
